Experimental data published in patent publication US4742045A, “Glycopeptide antibiotics” (SmithKline Beckman Corporation, priority 1986, dated 1988).
Like-named read-outs stand apart in the source and are kept apart here.

Columns and labels:
Staphylococcus aureus = experiment: standard microtiter assay, minimum inhibitory concentration; format: cell-based
Text: (§1) Representative results of standard microtiter assays are reported in Tables 1, 2 and 3 which follow, as the minimum inhibitory concentration of antibiotic (μg/ml).
(§2) In Table 1, test organisms 1-13 were different strains of Staphylococcus aureus, and 14-16 were different strains of Staphylococcus epidermidis. In Table 2, test organisms 1-5 were different strains of S. aureus; 6, 8, 12 and 14 were different strains of S. epidermidis; 7 was a Staphylococcus haemolyticus; 9 and 10 were different strains of Streptococcus faecalis; 11 was a Streptococcus pyogenes; and 13 was a Staphylococcus saprophyticus. In Table 3, test organisms 1-3 were different strains of S. aureus; 4 and 6 were different strains of S. epidermidis; 5 was a S. haemolyticus and 7 and 8 were different strains of Streptococcus faecalis. Except where individual components are indicated, the CWI-785 antibiotic employed was the CWI-785 complex; in some cases, HCl salts of the CWI-785 antibiotic were employed.
(§3) The number of strains tested is shown in parentheses below each organism. The average MIC is reported in μg/ml.
(§4) In Table 5 are shown data from standard microtiter assays carried out in a presence of no serum, 50% human serum (hum.) and 50% mouse serum (mse.). The test organisms were 1: S. aureus; 2,4 and 5: different strains of S. epidermidis; 3: S. haemolyticus; 6: S. saprophyticus; 7 and 8: different strains of S. faecalis.

[1] = system: Staphylococcus epidermidis; experiment: as above; format: cell-based; settings: Staphylococcus epidermidis
Text: as §1, §2, §4

[2] = system: Staphylococcus haemolyticus; experiment: as above; format: cell-based; settings: Staphylococcus haemolyticus
Text: as §1, §2, §4

[3] = system: Staphylococcus saprophyticus; experiment: as above; format: cell-based; settings: Staphylococcus saprophyticus
Text: as §1, §2, §4

Streptococcus pyogenes = experiment: as above; format: cell-based; settings: Streptococcus pyogenes, read-out: minimum inhibitory concentration
Text: as §1, §2

Coag-neg. Staphylococci = experiment: MIC against an expanded panel; format: cell-based; settings: Table 4, Coag-neg. Staphylococci (24 strains)
Text: as §3

Group A Strep. = experiment: MIC against an expanded panel; format: cell-based; settings: Table 4, Group A Strep. (6 strains)
Text: as §3

Group B Strep. = experiment: MIC against an expanded panel; format: cell-based; settings: Table 4, Group B Strep. (4 strains)
Text: as §3

JK Diptheroids = experiment: MIC against an expanded panel; format: cell-based; settings: Table 4, JK Diptheroids (19 strains)
Text: as §3

Viridans = experiment: MIC against an expanded panel; format: cell-based; settings: Table 4, Viridans (2 strains)
Text: as §3

S. aureus = experiment: mice infected intraperitoneally, dosed 1 hr after infection, ED50; format: in vivo; settings: Staphylococcus aureus, 1 h, antibiotic i.v. 1 hr post infection
Protocol: (§5) The in vivo activity of the CWI-785 complex and its components and hydrolysis products was confirmed by administering selected CWI-785 antibiotics to mice infected with various gram-positive pathogens. In one representative assay, in which mice infected intraperitoneally with 46.8 LD50 's of S. aureus (strain 1, Tables 1 and 2) were dosed once, subcutaneously one hour after infection, the following ED50 's (mg/kg) were observed: CWI-785B: 2.4, CWI-785C: 3.1, CWI-785: 3.8, HPB3: 0.9, vancomycin: 0.7. In a second representative assay carried out as above except that mice were infected with 3.17 LD50 's of S. faecalis (strain 9, Table 2), the following ED50 's were observed: HPB3 hydrochloride: 1.6, HPB4 hydrochloride: 1.6, vancomycin: 2.2, teicoplanin: 1.3.
(§6) In Table 6, below, is shown the ED50 in mg/kg of HPB4 in comparison to vancomycin and teicoplanin. Mice were injected i.p. with the indicated organism and then i.v., 1 hr post infection, with the indicated antibiotic.

S. faecalis = experiment: as above; format: in vivo; settings: Enterococcus faecalis, 1 h
Protocol: as §5, §6

S. epidermidis = experiment: mice infected i.p., antibiotic i.v. 1 hr post infection, ED50; format: in vivo; settings: Staphylococcus epidermidis, 1 h
Protocol: as §6

S. haemolyticus = experiment: as above; format: in vivo; settings: Staphylococcus haemolyticus, 1 h
Protocol: as §6

STAPH. AUREUS HH 127 = experiment: prophylactic activity, dosing preinfection; format: in vivo, mice; settings: for ED50: Staphylococcus aureus, in Mus musculus

CN[C@H](CC(C)C)C(=O)N[C@H]1C(=O)N[C@@H](CC(N)=O)C(=O)N[C@H]2C(=O)N[C@H]3C(=O)N[C@H](C(=O)N[C@H](C(=O)O)c4cc(O)cc(O)c4-c4cc3ccc4O)[C@H](O)c3ccc(c(Cl)c3)Oc3cc2cc(c3O[C@@H]2O[C@H](CO)[C@@H](O)[C@H](O)[C@H]2O[C@H]2C[C@](C)(N)[C@H](O)[C@H](C)O2)Oc2ccc(cc2Cl)[C@H]1O [Vancomycin, vancomycin]
0.4 µg/mL: MIC50 (Group A Strep.; read-out: MIC50)
1.6 µg/mL: MIC50 (Staphylococcus aureus; Staphylococcus aureus) | MIC (Staphylococcus aureus; Staphylococcus aureus, Table 5 organism 1 S. aureus, 50% Mse. Serum) | MIC (Staphylococcus aureus; Staphylococcus aureus, Table 5 organism 1 S. aureus, No Serum) | MIC (Staphylococcus aureus; Staphylococcus aureus, read-out: minimum inhibitory concentration, Table 1 test organism 1, S. aureus strain) | MIC (Staphylococcus aureus; Staphylococcus aureus, read-out: minimum inhibitory concentration, Table 1 test organism 2, S. aureus strain) | MIC (Staphylococcus aureus; Staphylococcus aureus, read-out: minimum inhibitory concentration, Table 1 test organism 3, S. aureus strain) | MIC (Staphylococcus aureus; Staphylococcus aureus, read-out: minimum inhibitory concentration, Table 1 test organism 4, S. aureus strain) | MIC (Staphylococcus aureus; Staphylococcus aureus, read-out: minimum inhibitory concentration, Table 1 test organism 5, S. aureus strain) | MIC (Staphylococcus aureus; Staphylococcus aureus, read-out: minimum inhibitory concentration, Table 1 test organism 6, S. aureus strain) | MIC (Staphylococcus aureus; Staphylococcus aureus, read-out: minimum inhibitory concentration, Table 1 test organism 8, S. aureus strain) | MIC (Staphylococcus aureus; Staphylococcus aureus, read-out: minimum inhibitory concentration, Table 1 test organism 9, S. aureus strain) | MIC (Staphylococcus aureus; Staphylococcus aureus, read-out: minimum inhibitory concentration, Table 1 test organism 10, S. aureus strain) | MIC (Staphylococcus aureus; Staphylococcus aureus, read-out: minimum inhibitory concentration, Table 1 test organism 11, S. aureus strain) | MIC (Staphylococcus aureus; Staphylococcus aureus, read-out: minimum inhibitory concentration, Table 1 test organism 12, S. aureus strain) | MIC (Staphylococcus aureus; Staphylococcus aureus, read-out: minimum inhibitory concentration, Table 2 test organism 1, S. aureus strain) | MIC (Staphylococcus aureus; Staphylococcus aureus, read-out: minimum inhibitory concentration, Table 2 test organism 2, S. aureus strain) | MIC (Staphylococcus aureus; Staphylococcus aureus, read-out: minimum inhibitory concentration, Table 2 test organism 3, S. aureus strain) | MIC (Staphylococcus aureus; Staphylococcus aureus, read-out: minimum inhibitory concentration, Table 2 test organism 4, S. aureus strain) | MIC (Staphylococcus aureus; Staphylococcus aureus, read-out: minimum inhibitory concentration, Table 2 test organism 5, S. aureus strain) | MIC ([1]; Table 5 organism 2 S. epidermidis, No Serum) | MIC ([1]; Table 5 organism 4 S. epidermidis, No Serum) | MIC ([1]; Table 5 organism 5 S. epidermidis, No Serum) | MIC ([1]; read-out: minimum inhibitory concentration, Table 1 test organism 14, S. epidermidis strain) | MIC ([1]; read-out: minimum inhibitory concentration, Table 1 test organism 16, S. epidermidis strain) | MIC ([1]; read-out: minimum inhibitory concentration, Table 2 test organism 6, S. epidermidis strain) | MIC ([1]; read-out: minimum inhibitory concentration, Table 2 test organism 8, S. epidermidis strain) | MIC ([1]; read-out: minimum inhibitory concentration, Table 2 test organism 12, S. epidermidis strain) | MIC ([1]; read-out: minimum inhibitory concentration, Table 2 test organism 14, S. epidermidis strain) | MIC ([3]; Table 5 organism 6 S. saprophyticus, No Serum) | MIC ([3]; read-out: minimum inhibitory concentration, Table 2 test organism 13, Staphylococcus saprophyticus) | MIC50 (JK Diptheroids; read-out: MIC50)
< 1.25 mg/kg: ED50 (S. epidermidis)
0.31 mg/kg: ED50 (STAPH. AUREUS HH 127; sc)
10%: PERCENT SURVIVAL (STAPH. AUREUS HH 127; Table 8: 40 mg/kg (I.V.), 6 hr preinfection)
≤ 0.1 µg/mL: MIC ([1]; Table 5 organism 5 S. epidermidis, 50% Hum. Serum)
10 mg/kg: ED50 (S. haemolyticus)
0.05 to 0.8 µg/mL: MIC RANGE (Viridans)
0.4 to 0.8 µg/mL: MIC RANGE (Group B Strep.)
20%: PERCENT SURVIVAL (STAPH. AUREUS HH 127; Table 7: 40 mg/kg, 4 hr preinfection, S.C.)
0.04 to 0.8 µg/mL: MIC RANGE (Group A Strep.)
0.8 to 1.6 µg/mL: MIC RANGE (JK Diptheroids)
3.1 µg/mL: MIC (Staphylococcus aureus; Staphylococcus aureus, Table 5 organism 1 S. aureus, 50% Hum. Serum) | MIC (Staphylococcus aureus; Staphylococcus aureus, read-out: minimum inhibitory concentration, Table 1 test organism 7, S. aureus strain) | MIC ([1]; Table 5 organism 2 S. epidermidis, 50% Hum. Serum) | MIC ([1]; Table 5 organism 2 S. epidermidis, 50% Mse. Serum) | MIC ([1]; Table 5 organism 4 S. epidermidis, 50% Hum. Serum) | MIC ([1]; Table 5 organism 4 S. epidermidis, 50% Mse. Serum) | MIC ([1]; Table 5 organism 5 S. epidermidis, 50% Mse. Serum) | MIC ([1]; read-out: minimum inhibitory concentration, Table 1 test organism 15, S. epidermidis strain) | MIC ([2]; Table 5 organism 3 S. haemolyticus, 50% Hum. Serum) | MIC ([2]; Table 5 organism 3 S. haemolyticus, No Serum) | MIC ([2]; read-out: minimum inhibitory concentration, Table 2 test organism 7, Staphylococcus haemolyticus) | MIC ([3]; Table 5 organism 6 S. saprophyticus, 50% Hum. Serum) | MIC50 (Coag-neg. Staphylococci; read-out: MIC50)
0.156 mg/kg: ED50 (STAPH. AUREUS HH 127; iv)
0.4 to 6.3 µg/mL: MIC RANGE (Coag-neg. Staphylococci)
1.4 mg/kg: ED50 (S. aureus; S. aureus 2620 (24 × LD50) i.p.)
6.3 µg/mL: MIC ([2]; Table 5 organism 3 S. haemolyticus, 50% Mse. Serum) | MIC ([3]; Table 5 organism 6 S. saprophyticus, 50% Mse. Serum)
0.4 mg/kg: ED50 (S. aureus; S. aureus HH 127 (35 × LD50) i.p.)
1.3 mg/kg: ED50 (S. faecalis)
1.6 to 6.3 µg/mL: MIC RANGE (Staphylococcus aureus; Table 4, S. aureus (30 strains))
0.8 µg/mL: MIC (Staphylococcus aureus; Staphylococcus aureus, read-out: minimum inhibitory concentration, Table 1 test organism 13, S. aureus strain) | MIC (Streptococcus pyogenes)
